The test system of experiment [1] is Tyrosine-protein kinase ABL1 (Homo sapiens), P00519 [E255K]. Briefly: Inhibition of phosphorylated ABL1 E255K mutant (unknown origin) assessed as residual activity at 1000 nM by KINOMEscan analysis relative to control.
Experiment [2] has as its target Activin receptor type-1-like (Homo sapiens) (UniProt P37023). Briefly: Inhibition of ACVRL1 (unknown origin) assessed as residual activity at 1000 nM by KINOMEscan analysis relative to control.
Experiment [3] concerns the target Ephrin type-A receptor 2 (Homo sapiens) (UniProt P29317). As to the kind of experiment: Inhibition of EPHA2 (unknown origin) assessed as residual activity at 1000 nM by KINOMEscan analysis relative to control.
Experiment [4] concerns the target Glycogen synthase kinase-3 beta (Homo sapiens) (UniProt P49841). Briefly: Inhibition of GSK3B (unknown origin) assessed as residual activity at 1000 nM by KINOMEscan analysis relative to control.
Experiment [5] deals with T1, Mitogen-activated protein kinase kinase kinase 15 (Homo sapiens) (UniProt Q6ZN16).
T1 sequence (whole entry): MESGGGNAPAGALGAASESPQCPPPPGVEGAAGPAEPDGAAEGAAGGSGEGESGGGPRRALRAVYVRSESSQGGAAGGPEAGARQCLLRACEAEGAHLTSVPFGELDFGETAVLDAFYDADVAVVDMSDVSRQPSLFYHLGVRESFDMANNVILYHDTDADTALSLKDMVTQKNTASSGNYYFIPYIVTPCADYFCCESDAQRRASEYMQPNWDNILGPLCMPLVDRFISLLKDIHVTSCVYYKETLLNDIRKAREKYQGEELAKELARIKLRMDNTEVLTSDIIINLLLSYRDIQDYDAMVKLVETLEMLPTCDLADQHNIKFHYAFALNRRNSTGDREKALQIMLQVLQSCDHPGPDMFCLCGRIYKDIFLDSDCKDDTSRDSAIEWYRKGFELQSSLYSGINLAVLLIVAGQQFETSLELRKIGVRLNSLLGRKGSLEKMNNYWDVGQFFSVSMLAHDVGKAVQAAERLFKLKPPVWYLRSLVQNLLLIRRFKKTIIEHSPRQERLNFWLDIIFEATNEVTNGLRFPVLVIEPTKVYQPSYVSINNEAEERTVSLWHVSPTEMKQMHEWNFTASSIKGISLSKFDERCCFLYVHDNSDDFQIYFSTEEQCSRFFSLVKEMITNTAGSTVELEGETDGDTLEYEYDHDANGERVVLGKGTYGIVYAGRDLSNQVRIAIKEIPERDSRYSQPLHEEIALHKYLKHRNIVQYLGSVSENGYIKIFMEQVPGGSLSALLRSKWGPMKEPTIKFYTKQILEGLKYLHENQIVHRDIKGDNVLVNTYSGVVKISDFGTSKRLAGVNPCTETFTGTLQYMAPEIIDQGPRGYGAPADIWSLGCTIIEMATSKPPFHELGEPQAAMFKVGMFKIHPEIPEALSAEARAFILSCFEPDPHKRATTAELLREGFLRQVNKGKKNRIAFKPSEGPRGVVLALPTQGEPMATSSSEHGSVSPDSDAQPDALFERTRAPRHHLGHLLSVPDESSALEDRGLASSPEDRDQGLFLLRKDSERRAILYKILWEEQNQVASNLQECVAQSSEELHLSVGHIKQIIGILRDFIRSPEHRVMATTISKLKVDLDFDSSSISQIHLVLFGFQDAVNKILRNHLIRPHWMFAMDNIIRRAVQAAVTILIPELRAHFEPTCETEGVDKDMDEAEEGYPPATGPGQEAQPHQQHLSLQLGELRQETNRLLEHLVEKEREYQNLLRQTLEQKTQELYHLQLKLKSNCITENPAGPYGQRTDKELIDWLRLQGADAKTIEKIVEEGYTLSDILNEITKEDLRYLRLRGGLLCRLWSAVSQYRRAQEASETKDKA
As to the kind of experiment: Inhibition of MAP3K15 (unknown origin) assessed as residual activity at 1000 nM by KINOMEscan analysis relative to control.

Experiment [6] addresses T2, MAP kinase-activated protein kinase 5 (Homo sapiens) (UniProt Q8IW41).
T2 sequence (whole entry): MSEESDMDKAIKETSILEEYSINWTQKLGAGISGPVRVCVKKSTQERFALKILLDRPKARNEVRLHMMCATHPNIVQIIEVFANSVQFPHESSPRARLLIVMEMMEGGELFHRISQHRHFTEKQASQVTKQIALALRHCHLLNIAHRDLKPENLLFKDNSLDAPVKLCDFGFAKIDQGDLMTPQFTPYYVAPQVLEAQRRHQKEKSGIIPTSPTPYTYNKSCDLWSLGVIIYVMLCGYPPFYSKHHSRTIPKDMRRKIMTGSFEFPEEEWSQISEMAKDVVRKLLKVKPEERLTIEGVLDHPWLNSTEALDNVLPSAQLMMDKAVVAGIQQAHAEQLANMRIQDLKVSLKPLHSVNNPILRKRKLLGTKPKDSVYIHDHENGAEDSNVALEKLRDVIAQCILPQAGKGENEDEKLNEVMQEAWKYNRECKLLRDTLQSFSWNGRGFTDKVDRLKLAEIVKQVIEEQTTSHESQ
As to the kind of experiment: Inhibition of MAPKAPK5 (unknown origin) assessed as residual activity at 1000 nM by KINOMEscan analysis relative to control.

Experiment [7] deals with MAP/microtubule affinity-regulating kinase 3 (Homo sapiens) (UniProt P27448). Briefly: Inhibition of MARK3 (unknown origin) assessed as residual activity at 1000 nM by KINOMEscan analysis relative to control.
MAP/microtubule affinity-regulating kinase 3 (Homo sapiens), sequence (P27448 whole entry, looked up, the tested form may be a part): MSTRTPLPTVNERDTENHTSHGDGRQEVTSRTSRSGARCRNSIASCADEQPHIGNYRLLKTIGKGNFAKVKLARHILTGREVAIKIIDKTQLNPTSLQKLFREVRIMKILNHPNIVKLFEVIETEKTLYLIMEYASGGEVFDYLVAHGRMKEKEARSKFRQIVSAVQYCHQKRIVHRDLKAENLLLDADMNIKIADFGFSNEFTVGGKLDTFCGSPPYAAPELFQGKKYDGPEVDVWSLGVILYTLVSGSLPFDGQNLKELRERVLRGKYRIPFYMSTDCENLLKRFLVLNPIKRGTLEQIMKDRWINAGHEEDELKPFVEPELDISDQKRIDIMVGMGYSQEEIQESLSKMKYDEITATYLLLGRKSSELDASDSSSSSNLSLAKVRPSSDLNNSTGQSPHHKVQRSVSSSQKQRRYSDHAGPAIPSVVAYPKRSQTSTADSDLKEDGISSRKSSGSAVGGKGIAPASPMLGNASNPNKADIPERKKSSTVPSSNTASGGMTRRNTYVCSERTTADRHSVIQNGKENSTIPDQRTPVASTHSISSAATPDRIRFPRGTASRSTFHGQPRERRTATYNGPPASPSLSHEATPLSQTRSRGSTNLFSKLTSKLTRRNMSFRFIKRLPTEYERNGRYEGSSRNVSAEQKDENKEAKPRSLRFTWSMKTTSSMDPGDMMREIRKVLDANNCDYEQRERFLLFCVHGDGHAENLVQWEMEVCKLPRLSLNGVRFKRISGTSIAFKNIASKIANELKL
In experiment [8] the target is Ribosomal protein S6 kinase alpha-1 (Homo sapiens) (UniProt Q15418). Briefly: Inhibition of N-terminal RSK1 kinetic domain 1 (unknown origin) assessed as residual activity at 1000 nM by KINOMEscan analysis relative to control.
Ribosomal protein S6 kinase alpha-1 (Homo sapiens), sequence (Q15418 whole entry, the tested form may be a part): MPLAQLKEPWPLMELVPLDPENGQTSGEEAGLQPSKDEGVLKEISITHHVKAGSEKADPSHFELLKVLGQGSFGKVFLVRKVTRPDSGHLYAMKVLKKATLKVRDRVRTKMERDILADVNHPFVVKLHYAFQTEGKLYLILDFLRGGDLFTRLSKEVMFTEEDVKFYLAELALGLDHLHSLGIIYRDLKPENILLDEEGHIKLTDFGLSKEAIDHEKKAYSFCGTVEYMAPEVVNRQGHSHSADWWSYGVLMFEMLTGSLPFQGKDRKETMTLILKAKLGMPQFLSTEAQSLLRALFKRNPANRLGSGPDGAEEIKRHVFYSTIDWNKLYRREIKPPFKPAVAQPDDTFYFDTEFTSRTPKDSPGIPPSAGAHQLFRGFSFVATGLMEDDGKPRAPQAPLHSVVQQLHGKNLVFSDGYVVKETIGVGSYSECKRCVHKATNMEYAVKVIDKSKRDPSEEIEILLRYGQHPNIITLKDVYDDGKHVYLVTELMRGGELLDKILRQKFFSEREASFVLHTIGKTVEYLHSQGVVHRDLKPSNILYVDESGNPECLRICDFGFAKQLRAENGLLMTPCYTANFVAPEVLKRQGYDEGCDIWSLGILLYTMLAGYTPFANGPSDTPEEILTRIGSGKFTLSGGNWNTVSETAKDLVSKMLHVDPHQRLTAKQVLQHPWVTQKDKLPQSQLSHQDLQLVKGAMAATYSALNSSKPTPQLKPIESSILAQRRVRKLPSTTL

Tyrosine-protein kinase ABL1 (Homo sapiens), P00519 [E255K], sequence (P00519 whole entry E255K): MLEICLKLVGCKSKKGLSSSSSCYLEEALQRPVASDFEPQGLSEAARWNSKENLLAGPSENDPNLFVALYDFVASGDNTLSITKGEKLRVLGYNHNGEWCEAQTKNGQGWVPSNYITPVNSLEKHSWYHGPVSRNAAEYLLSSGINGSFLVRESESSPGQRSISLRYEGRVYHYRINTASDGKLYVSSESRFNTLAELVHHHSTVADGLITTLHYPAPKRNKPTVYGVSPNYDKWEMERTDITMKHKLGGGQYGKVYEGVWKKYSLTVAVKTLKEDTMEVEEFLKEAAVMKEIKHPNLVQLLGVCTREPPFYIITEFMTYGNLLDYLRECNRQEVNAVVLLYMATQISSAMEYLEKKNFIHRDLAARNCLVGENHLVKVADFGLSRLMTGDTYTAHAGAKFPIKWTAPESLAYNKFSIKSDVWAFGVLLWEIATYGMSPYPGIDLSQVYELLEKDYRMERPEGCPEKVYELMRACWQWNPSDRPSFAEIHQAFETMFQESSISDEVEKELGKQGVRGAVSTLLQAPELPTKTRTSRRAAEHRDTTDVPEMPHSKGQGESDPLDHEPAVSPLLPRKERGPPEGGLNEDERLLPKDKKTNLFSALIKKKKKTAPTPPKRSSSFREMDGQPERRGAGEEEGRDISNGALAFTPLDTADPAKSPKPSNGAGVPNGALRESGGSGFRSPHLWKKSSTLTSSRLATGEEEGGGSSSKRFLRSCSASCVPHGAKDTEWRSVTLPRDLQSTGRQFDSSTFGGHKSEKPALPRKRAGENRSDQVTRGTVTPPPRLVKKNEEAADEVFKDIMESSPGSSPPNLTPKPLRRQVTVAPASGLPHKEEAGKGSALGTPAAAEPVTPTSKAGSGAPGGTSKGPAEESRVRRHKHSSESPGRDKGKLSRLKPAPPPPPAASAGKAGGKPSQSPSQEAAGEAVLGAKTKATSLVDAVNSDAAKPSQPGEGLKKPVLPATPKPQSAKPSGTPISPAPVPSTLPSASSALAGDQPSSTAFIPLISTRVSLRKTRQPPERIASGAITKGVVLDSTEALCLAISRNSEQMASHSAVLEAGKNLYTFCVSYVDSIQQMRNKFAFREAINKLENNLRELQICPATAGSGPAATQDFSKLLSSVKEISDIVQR
Ephrin type-A receptor 2 (Homo sapiens), sequence (P29317 whole entry): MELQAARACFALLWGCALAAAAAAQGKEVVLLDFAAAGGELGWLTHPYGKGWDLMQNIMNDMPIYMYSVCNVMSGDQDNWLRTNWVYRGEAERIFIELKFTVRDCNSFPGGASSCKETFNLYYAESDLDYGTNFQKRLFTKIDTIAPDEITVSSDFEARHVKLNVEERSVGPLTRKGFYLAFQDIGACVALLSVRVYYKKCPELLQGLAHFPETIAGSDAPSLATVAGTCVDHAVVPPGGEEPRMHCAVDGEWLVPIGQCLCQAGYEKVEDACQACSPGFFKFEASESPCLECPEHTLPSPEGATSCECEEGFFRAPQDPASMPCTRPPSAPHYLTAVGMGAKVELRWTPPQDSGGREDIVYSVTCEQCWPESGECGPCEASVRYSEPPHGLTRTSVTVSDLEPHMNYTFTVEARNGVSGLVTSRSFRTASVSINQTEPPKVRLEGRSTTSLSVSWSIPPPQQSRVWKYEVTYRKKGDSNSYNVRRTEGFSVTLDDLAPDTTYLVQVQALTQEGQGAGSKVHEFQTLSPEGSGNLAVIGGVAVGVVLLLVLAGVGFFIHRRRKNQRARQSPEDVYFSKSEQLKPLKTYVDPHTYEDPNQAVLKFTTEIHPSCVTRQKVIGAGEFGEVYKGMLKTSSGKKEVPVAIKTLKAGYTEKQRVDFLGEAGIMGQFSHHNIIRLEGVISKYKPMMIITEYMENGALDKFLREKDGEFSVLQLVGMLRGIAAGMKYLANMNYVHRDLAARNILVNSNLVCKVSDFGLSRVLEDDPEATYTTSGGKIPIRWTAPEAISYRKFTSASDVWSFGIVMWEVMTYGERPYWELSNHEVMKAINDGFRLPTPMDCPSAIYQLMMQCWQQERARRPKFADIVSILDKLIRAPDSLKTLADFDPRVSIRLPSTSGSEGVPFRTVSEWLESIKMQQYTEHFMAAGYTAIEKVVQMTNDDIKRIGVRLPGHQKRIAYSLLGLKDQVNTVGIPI
Glycogen synthase kinase-3 beta (Homo sapiens), sequence (P49841 whole entry, looked up): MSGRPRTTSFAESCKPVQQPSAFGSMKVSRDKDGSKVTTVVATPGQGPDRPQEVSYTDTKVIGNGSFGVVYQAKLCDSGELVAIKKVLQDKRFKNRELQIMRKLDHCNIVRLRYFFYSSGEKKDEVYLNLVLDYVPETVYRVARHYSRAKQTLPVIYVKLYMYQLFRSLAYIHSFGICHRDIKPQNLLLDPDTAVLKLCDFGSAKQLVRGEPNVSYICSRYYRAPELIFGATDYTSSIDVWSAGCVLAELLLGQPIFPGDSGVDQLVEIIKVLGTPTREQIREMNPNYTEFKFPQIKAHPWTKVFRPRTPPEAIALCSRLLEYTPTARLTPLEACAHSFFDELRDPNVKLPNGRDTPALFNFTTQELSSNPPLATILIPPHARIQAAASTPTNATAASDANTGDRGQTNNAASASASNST
Activin receptor type-1-like (Homo sapiens), sequence (P37023 whole entry): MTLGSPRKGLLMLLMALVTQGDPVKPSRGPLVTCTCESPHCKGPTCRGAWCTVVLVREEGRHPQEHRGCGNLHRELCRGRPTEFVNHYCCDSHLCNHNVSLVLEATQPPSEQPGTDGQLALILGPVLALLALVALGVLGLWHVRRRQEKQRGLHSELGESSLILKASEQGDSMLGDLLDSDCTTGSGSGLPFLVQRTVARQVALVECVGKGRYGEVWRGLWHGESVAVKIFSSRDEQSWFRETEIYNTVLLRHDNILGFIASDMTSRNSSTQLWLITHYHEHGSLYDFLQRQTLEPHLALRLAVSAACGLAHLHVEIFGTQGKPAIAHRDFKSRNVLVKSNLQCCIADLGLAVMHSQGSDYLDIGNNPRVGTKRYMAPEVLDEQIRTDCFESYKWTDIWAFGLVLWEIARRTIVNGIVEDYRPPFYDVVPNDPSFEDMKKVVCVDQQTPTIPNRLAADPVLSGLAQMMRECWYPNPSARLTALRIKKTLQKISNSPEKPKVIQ

In the case of `COc1cc2nc(C)nc(N[C@H](C)c3cccc(-c4cn[nH]c4)c3)c2cc1OC`, the Activity in experiment [1] stood at 65%; in experiment [2], 99%; in experiment [3], 45%; in experiment [4], 61%; in experiment [5], 63%; in experiment [6] it was 85%. The Activity in experiment [7] was 100%; in experiment [8] it was 95%.

In the case of `COc1cc2ncnc(N[C@H](C)c3cccc4ccccc34)c2cc1OC`, the Activity in experiment [1] turned out to be 89%; in experiment [2], 100%; in experiment [3], 94%; in experiment [4] it was 100%; in experiment [5] it was 80%; in experiment [6], 87%. Further, the Activity in experiment [7] stood at 64%; in experiment [8], 76%.

The values above are taken from ChEMBL document CHEMBL5678818, “Discovery of potent SOS1 inhibitors that block RAS activation via disruption of the RAS-SOS1 interaction” (Proc Natl Acad Sci U S A, 2019).
